Experimental data: patent US6221906A, “Platinum complex conjugated to cyclotriphosphazene, its preparation, and anticancer agent comprising the same” (Korea Institute of Science and Technology, priority 1999, dated 2001)

How the values were obtained:
leukemia L1210 cells = test: anticancer activity test against mouse leukemia L1210 cells implanted in BDF1 mice; type: in vivo; details: intra-peritoneal, days 1, 5 and 9; for Number of survival after 60 days: of 8 mice
[1] = literature value; cited from earlier work
ICR mouse = test: pilot acute toxicity test, single tail vein injection (LD50); type: in vivo; details: for Death rate: 2 animals; for deaths on day 0 after administration: of 2 animals
Method: A pilot acute toxicity test was performed for the compound (KI-60606) described in Example 8 of the present invention by intravenous injection.
(2) carrier: physiological saline for injection
(1) animal model: ICR mouse
(2) age of the animal: 4 weeks old when delivered, 5 weeks old when the drug was administered
(3) sex and number of animals: 12 males and 12 females
(4) breeding condition: temperature: 23 3C. relative humidity: 50 10% light intensity: 150-300 Lux
3. Number and method of administration: single tail vein injection
5. Observation categories: general symptoms, symptoms of dead animals, body weight up to seventh day after administration, autopsy finding.

Hartley guinea pigs = test: guinea pig anaphylaxis test; type: in vivo
Method: […] The systemic symptoms were observed 30 minutes after the injection. […] However, only 2 animals administered with oligomeric platinum complex of the present invention (KI 60606: The compound in Example 8 of the present invention) had severe symptoms but none died.

[2] = male or female mice, 500 mg/kg or more
[3] = antigen 1 mg/kg, induced antigen 5 mg/kg, 4 animals
[4] = antigen 5 mg/kg, induced antigen 5 mg/kg, 4 animals

Compound: O=C1[O][Pt-2]2([NH2+]C3CCCCC3[NH2+]2)[O]C(=O)C1NP1(NC2C(=O)[O][Pt-2]3([NH2+]C4CCCCC4[NH2+]3)[O]C2=O)=NP(NC2C(=O)[O][Pt-2]3([NH2+]C4CCCCC4[NH2+]3)[O]C2=O)(NC2C(=O)[O][Pt-2]3([NH2+]C4CCCCC4[NH2+]3)[O]C2=O)=NP(NC2C(=O)[O][Pt-2]3([NH2+]C4CCCCC4[NH2+]3)[O]C2=O)(NC2C(=O)[O][Pt-2]3([NH2+]C4CCCCC4[NH2+]3)[O]C2=O)=N1 (racemic) [Example 16, [NP(Am·Pt(dach)2]3]
- Increased life span (ILS) (leukemia L1210 cells; 30 mg/kg): 222.1%
- Increased life span (ILS) (leukemia L1210 cells; 60 mg/kg): Toxic

Compound: N.N.O=C([O-])C1(C(=O)[O-])CCC1.[Pt+2] [Carboplatin, cis-(NH3)2 Pt(CBDCA), reference compound]
- Increased life span (ILS) (leukemia L1210 cells; 40 mg/kg): 80%
- LD50 [1]: 180 mg/kg

Compound: N.N.[Cl][Pt][Cl] [Cisplatin, cis-(NH3)2 PtCl2, reference compound]
- Increased life span (ILS) (leukemia L1210 cells; 4 mg/kg): 60%

Compound: O=C1CC(NP2(NC3CC(=O)[O][Pt-2]4([NH2+]C5CCCCC5[NH2+]4)[O]C3=O)=NP(NC3CC(=O)[O][Pt-2]4([NH2+]C5CCCCC5[NH2+]4)[O]C3=O)(NC3CC(=O)[O][Pt-2]4([NH2+]C5CCCCC5[NH2+]4)[O]C3=O)=NP(NC3CC(=O)[O][Pt-2]4([NH2+]C5CCCCC5[NH2+]4)[O]C3=O)(NC3CC(=O)[O][Pt-2]4([NH2+]C5CCCCC5[NH2+]4)[O]C3=O)=N2)C(=O)[O][Pt-2]2([NH2+]C3CCCCC3[NH2+]2)[O]1 [Example 1, [NP(L-Asp·Pt(dach))2]3]
- Increased life span (ILS) (leukemia L1210 cells; 40 mg/kg): > 243.8%
- Number of survival after 60 days (leukemia L1210 cells; 40 mg/kg): 1/8
- Increased life span (ILS) (leukemia L1210 cells; 60 mg/kg): > 448.8%
- Number of survival after 60 days (leukemia L1210 cells; 60 mg/kg): 4/8

Compound: CC1(C)C[NH2+][Pt-2]2([NH2+]C1)[O]C(=O)C[C@H](NP1(N[C@H]3CC(=O)[O][Pt-2]4([NH2+]CC(C)(C)C[NH2+]4)[O]C3=O)=NP(N[C@H]3CC(=O)[O][Pt-2]4([NH2+]CC(C)(C)C[NH2+]4)[O]C3=O)(N[C@H]3CC(=O)[O][Pt-2]4([NH2+]CC(C)(C)C[NH2+]4)[O]C3=O)=NP(N[C@H]3CC(=O)[O][Pt-2]4([NH2+]CC(C)(C)C[NH2+]4)[O]C3=O)(N[C@H]3CC(=O)[O][Pt-2]4([NH2+]CC(C)(C)C[NH2+]4)[O]C3=O)=N1)C(=O)[O]2 [Example 2, [NP(L-Asp·Pt(dmpda))2]3]
- Increased life span (ILS) (leukemia L1210 cells; 30 mg/kg): 165.0%
- Increased life span (ILS) (leukemia L1210 cells; 60 mg/kg): 147.9%

Compound: O=C1C[C@H](NP2(N[C@H]3CC(=O)[O][Pt-2]4([NH2+]CC[NH2+]4)[O]C3=O)=NP(N[C@H]3CC(=O)[O][Pt-2]4([NH2+]CC[NH2+]4)[O]C3=O)(N[C@H]3CC(=O)[O][Pt-2]4([NH2+]CC[NH2+]4)[O]C3=O)=NP(N[C@H]3CC(=O)[O][Pt-2]4([NH2+]CC[NH2+]4)[O]C3=O)(N[C@H]3CC(=O)[O][Pt-2]4([NH2+]CC[NH2+]4)[O]C3=O)=N2)C(=O)[O][Pt-2]2([NH2+]CC[NH2+]2)[O]1 [Example 4, [NP(L-Asp·Pt(en))2]3]
- Increased life span (ILS) (leukemia L1210 cells; 30 mg/kg): 250.9%
- Increased life span (ILS) (leukemia L1210 cells; 60 mg/kg): Toxic

Compound: O=C1CCC(NP2(NC3CCC(=O)[O][Pt-2]4([NH2+]C5CCCCC5[NH2+]4)[O]C3=O)=NP(NC3CCC(=O)[O][Pt-2]4([NH2+]C5CCCCC5[NH2+]4)[O]C3=O)(NC3CCC(=O)[O][Pt-2]4([NH2+]C5CCCCC5[NH2+]4)[O]C3=O)=NP(NC3CCC(=O)[O][Pt-2]4([NH2+]C5CCCCC5[NH2+]4)[O]C3=O)(NC3CCC(=O)[O][Pt-2]4([NH2+]C5CCCCC5[NH2+]4)[O]C3=O)=N2)C(=O)[O][Pt-2]2([NH2+]C3CCCCC3[NH2+]2)[O]1 [Example 8, [NP(L-Glu·Pt(dach))2]3]
- Main symptoms (ICR mouse; 62.5-2000 mg/kg, single intravenous injection, ICR mice): prone positioning, gait disturbance, dyspnea and decrease in body weight
- General symptoms of dead mice (ICR mouse; 125 or 250 mg/kg): prone positioning and drooling
- Estimated LD50 value (ICR mouse; female ICR mice, single intravenous injection): 125 to 250 mg/kg
- Death rate (ICR mouse; female, 62.5 mg/kg): 0%
- number of mice with decrease in body weight (ICR mouse; female, 125 mg/kg): 2
- Death rate (ICR mouse; female, 125 mg/kg): 0%
- Death rate (ICR mouse; female, 250 mg/kg): 100%
- deaths on day 0 after administration (ICR mouse; female, 250 mg/kg): 2
- Death rate (ICR mouse; female, 500 mg/kg): 100%
- deaths on day 0 after administration (ICR mouse; female, 500 mg/kg): 2
- Death rate (ICR mouse; female, 1000 mg/kg): 100%
- deaths on day 0 after administration (ICR mouse; female, 1000 mg/kg): 2
- Death rate (ICR mouse; female, 2000 mg/kg): 100%
- deaths on day 0 after administration (ICR mouse; female, 2000 mg/kg): 2
- Estimated LD50 value (ICR mouse; male ICR mice, single intravenous injection): 125 mg/kg
- General symptoms (ICR mouse; [2]): prone positioning, gait disturbance and dyspnea
- time of death after injection (ICR mouse; [2]): 10 to 20 s
- number of mice with decrease in body weight (ICR mouse; male, 62.5 mg/kg): 1
- Death rate (ICR mouse; male, 62.5 mg/kg): 0%
- Death rate (ICR mouse; male, 125 mg/kg): 50%
- deaths on day 0 after administration (ICR mouse; male, 125 mg/kg): 1
- Death rate (ICR mouse; male, 250 mg/kg): 100%
- deaths on day 0 after administration (ICR mouse; male, 250 mg/kg): 2
- Death rate (ICR mouse; male, 500 mg/kg): 100%
- deaths on day 0 after administration (ICR mouse; male, 500 mg/kg): 2
- Death rate (ICR mouse; male, 1000 mg/kg): 100%
- deaths on day 0 after administration (ICR mouse; male, 1000 mg/kg): 2
- Death rate (ICR mouse; male, 2000 mg/kg): 100%
- deaths on day 0 after administration (ICR mouse; male, 2000 mg/kg): 2
- autopsy finding (ICR mouse; mice that died immediately and mice that survived): No particular autopsy finding was observed
- General symptoms of live animals (ICR mouse; one day after injection): did not have any particular symptoms
- death in anaphylaxis test (Hartley guinea pigs; all dose groups): none died
- number of animals with severe symptoms (Hartley guinea pigs; all dose groups): 2
- number of animals with symptom [++] (severe) (Hartley guinea pigs; [3]): 2
- number of animals with symptom [+] (moderate) (Hartley guinea pigs; [3]): 1
- number of animals with symptom [±] (mild) (Hartley guinea pigs; [3]): 1
- number of animals with symptom [+] (moderate) (Hartley guinea pigs; [4]): 1
- number of animals with symptom [-] (asymptomatic) (Hartley guinea pigs; [4]): 3
- antigenicity compared with physiological saline (Hartley guinea pigs; compared with physiological saline solution): antigenicity was even less
- Increased life span (ILS) (leukemia L1210 cells; 60 mg/kg): > 400%
- Number of survival after 60 days (leukemia L1210 cells; 60 mg/kg): 3/8
- Increased life span (ILS) (leukemia L1210 cells; 80 mg/kg): > 402.8%
- Number of survival after 60 days (leukemia L1210 cells; 80 mg/kg): 3/8

Compound: O=C1CC[C@H](NP2(N[C@H]3CCC(=O)[O][Pt-2]4([NH2+]CC[NH2+]4)[O]C3=O)=NP(N[C@H]3CCC(=O)[O][Pt-2]4([NH2+]CC[NH2+]4)[O]C3=O)(N[C@H]3CCC(=O)[O][Pt-2]4([NH2+]CC[NH2+]4)[O]C3=O)=NP(N[C@H]3CCC(=O)[O][Pt-2]4([NH2+]CC[NH2+]4)[O]C3=O)(N[C@H]3CCC(=O)[O][Pt-2]4([NH2+]CC[NH2+]4)[O]C3=O)=N2)C(=O)[O][Pt-2]2([NH2+]CC[NH2+]2)[O]1 [Example 13, [NP(L-Glu·Pt(en))2]3]
- Increased life span (ILS) (leukemia L1210 cells; 30 mg/kg): 277%
- Increased life span (ILS) (leukemia L1210 cells; 60 mg/kg): Toxic

Compound: O=C1[O][Pt-2]2([NH2+]CC[NH2+]2)[O]C(=O)C1NP1(NC2C(=O)[O][Pt-2]3([NH2+]CC[NH2+]3)[O]C2=O)=NP(NC2C(=O)[O][Pt-2]3([NH2+]CC[NH2+]3)[O]C2=O)(NC2C(=O)[O][Pt-2]3([NH2+]CC[NH2+]3)[O]C2=O)=NP(NC2C(=O)[O][Pt-2]3([NH2+]CC[NH2+]3)[O]C2=O)(NC2C(=O)[O][Pt-2]3([NH2+]CC[NH2+]3)[O]C2=O)=N1 (stereo not shown) [Example 18, [NP(Am·Pt(en))2]3]
- Increased life span (ILS) (leukemia L1210 cells; 30 mg/kg): > 400%
- Number of survival after 60 days (leukemia L1210 cells; 30 mg/kg): 3/8
- Increased life span (ILS) (leukemia L1210 cells; 60 mg/kg): Toxic

Compound: [NP(OH)(Glu.Pt(dach)]n [KI-30606, reference compound]
- death due to anaphylaxis (Hartley guinea pigs; all animals, 30 minutes after injection): died due to anaphylaxis
- number of animals with symptom [+++] (death) (Hartley guinea pigs; antigen 1 mg/kg, induced antigen 5 mg/kg, 5 animals): 5
- number of animals with symptom [+++] (death) (Hartley guinea pigs; [4]): 4
